From PubChem BioAssay AID330 (DTP/NCI, 2004)
“And” between values parts separate entries of the source, which are not always exact repeats. Equal values may be shown once. Inconclusive results and toxic doses are left out. How the source made its calls: active means survival T/C of 150% or more; inactive means T/C below 125% in these data.

System: P388 leukemia ip, CD2F1 mice, survival T/C
Assay: NCI In Vivo Anticancer Drug Screen. Data for tumor model P388 Leukemia (intraperitoneal) in CD2F1 (CDF1) mice
Conditions: endpoint: median survival time, higher = longer survival
Procedure, shortened: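 Mice carrying the transplanted tumor received test compound or vehicle. Survival was recorded in each group, and the value is the treated-group measurement divided by that of the vehicle-treated control group.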

[1] = dose: 100.0 mg/kg/injection, schedule: Q01DX001 (ip), vehicle: saline
[2] = dose: 200.0 mg/kg/injection, schedule: Q01DX001 (ip), vehicle: saline
[3] = dose: 50.0 mg/kg/injection, schedule: Q01DX005 (ip), vehicle: Klucel (hydroxypropylcellulose) (HPC)
[4] = dose: 100.0 mg/kg/injection, schedule: Q01DX005 (ip), vehicle: Klucel (hydroxypropylcellulose) (HPC)
[5] = dose: 200.0 mg/kg/injection, schedule: Q01DX005 (ip), vehicle: Klucel (hydroxypropylcellulose) (HPC)
[6] = dose: 50.0 mg/kg/injection, schedule: Q01DX005 (ip), vehicle: saline with Tween-80
[7] = dose: 50.0 mg/kg/injection, schedule: Q01DX009 (ip), vehicle: saline with Tween-80
[8] = dose: 100.0 mg/kg/injection, schedule: Q01DX009 (ip), vehicle: saline with Tween-80
[9] = dose: 200.0 mg/kg/injection, schedule: Q01DX009 (ip), vehicle: saline with Tween-80
[10] = dose: 60.0 mg/kg/injection, schedule: Q01DX005 (ip), vehicle: saline with Tween-80
[11] = dose: 120.0 mg/kg/injection, schedule: Q01DX005 (ip), vehicle: saline with Tween-80
[12] = dose: 100.0 mg/kg/injection, schedule: Q01DX001 (ip), vehicle: saline with Tween-80
[13] = dose: 200.0 mg/kg/injection, schedule: Q01DX001 (ip), vehicle: saline with Tween-80
[14] = dose: 50.0 mg/kg/injection, schedule: Q01DX009 (ip), vehicle: saline
[15] = dose: 100.0 mg/kg/injection, schedule: Q01DX009 (ip), vehicle: saline
[16] = dose: 200.0 mg/kg/injection, schedule: Q01DX009 (ip), vehicle: saline
[17] = dose: 100.0 mg/kg/injection, schedule: Q01DX005 (ip), vehicle: saline with Tween-80
[18] = dose: 200.0 mg/kg/injection, schedule: Q01DX005 (ip), vehicle: saline with Tween-80

Measured: T/C

CC[C@@H]1O[C@H]2O[C@@H](/C=C/C=C/C=C/c3oc(=O)cc(OC)c3C)[C@@H](O)[C@@]2(C)[C@]1(C)O
inactive: dose: 0.5 mg/kg/injection, schedule: Q01DX009 (ip), vehicle: Klucel (hydroxypropylcellulose) (HPC) 107 % of control | dose: 1.0 mg/kg/injection, schedule: Q01DX009 (ip), vehicle: Klucel (hydroxypropylcellulose) (HPC) 106 % of control | dose: 2.0 mg/kg/injection, schedule: Q01DX009 (ip), vehicle: Klucel (hydroxypropylcellulose) (HPC) 98 % of control

O=C1CC2(CC(=O)NC2=O)C(=O)N1
inactive: [1] 100 % of control | [2] 97 % of control | dose: 400.0 mg/kg/injection, schedule: Q01DX001 (ip), vehicle: saline 92 % of control

C=CCNC(=S)NNC(=O)Cc1nc2ccccc2[nH]1
inactive: [3] 98 % of control | [4] 97 % of control | [5] 92 % of control

O=C1CN(c2cccc(C(F)(F)F)c2)C(=O)CN1/N=C/c1ccco1
inactive: dose: 12.5 mg/kg/injection, schedule: Q01DX005 (ip), vehicle: saline with Tween-80 100 % of control | dose: 25.0 mg/kg/injection, schedule: Q01DX005 (ip), vehicle: saline with Tween-80 105 % of control | [6] 99 % of control and 100 % of control

O=C(O)CCC1(C(=O)O)NCCc2c1[nH]c1ccccc21 (stereo not drawn)
inactive: dose: 25.0 mg/kg/injection, schedule: Q01DX009 (ip), vehicle: suspension in saline 95 % of control | dose: 50.0 mg/kg/injection, schedule: Q01DX009 (ip), vehicle: suspension in saline 99 % of control | dose: 100.0 mg/kg/injection, schedule: Q01DX009 (ip), vehicle: suspension in saline 98 % of control

Cn1c(N)c(N=Nc2ccccc2Cl)c(=O)n(C)c1=O
inactive: [7] 104 % of control | [8] 99 % of control | [9] 95 % of control

C=C1C(=O)OC2CCCC(O)C12 (stereo not drawn)
inactive: dose: 50.0 mg/kg/injection, schedule: Q04DX003 (ip), vehicle: Klucel (hydroxypropylcellulose) (HPC) 106 % of control and 96 % of control | dose: 100.0 mg/kg/injection, schedule: Q04DX003 (ip), vehicle: Klucel (hydroxypropylcellulose) (HPC) 104 % of control | dose: 200.0 mg/kg/injection, schedule: Q04DX003 (ip), vehicle: Klucel (hydroxypropylcellulose) (HPC) 115 % of control

O=c1[nH]c(=O)n(C2OC(CF)C(O)C2O)cc1Br (stereo not drawn)
inactive: [3] 96 % of control | [4] 96 % of control | [5] 98 % of control

N#CC(/C=C/c1ccccc1)(NO)Nc1cccc(Cl)c1 (stereo not drawn)
inactive: [10] 116 % of control | [11] 114 % of control

O=C1CSC(c2c(F)cccc2Cl)N1c1ncccn1 (stereo not drawn)
inactive: dose: 60.0 mg/kg/injection, schedule: Q01DX005 (ip), vehicle: Klucel (hydroxypropylcellulose) (HPC) 109 % of control | dose: 120.0 mg/kg/injection, schedule: Q01DX005 (ip), vehicle: Klucel (hydroxypropylcellulose) (HPC) 111 % of control

CC1(C)Cc2nn3c(c2C(=O)O1)CC(c1ccccc1)c1ccccc1-3 (stereo not drawn)
inactive: [12] 90 % of control | [13] 89 % of control | dose: 400.0 mg/kg/injection, schedule: Q01DX001 (ip), vehicle: saline with Tween-80 96 % of control

OCCN(CCO)CCCCCCN(CCO)CCO
inactive: dose: 25.0 mg/kg/injection, schedule: Q01DX009 (ip), vehicle: saline 98 % of control | [14] 104 % of control | [15] 107 % of control | [16] 113 % of control

[Na+]
inactive: [14] 95 % of control | [15] 100 % of control | [16] 98 % of control | dose: 0.5 % in 0.5 ml injection vol, schedule: Q01DX009 (ip), vehicle: water 105 % of control and 96 % of control | dose: 1.0 % in 0.5 ml injection vol, schedule: Q01DX009 (ip), vehicle: water 100 % of control and 96 % of control | dose: 2.0 % in 0.5 ml injection vol, schedule: Q01DX009 (ip), vehicle: water 102 % of control and 106 % of control | dose: 3.12 % in 0.5 ml injection vol, schedule: Q01DX009 (ip), vehicle: water 101 % of control and 92 % of control | dose: 4.0 % in 0.5 ml injection vol, schedule: Q01DX009 (ip), vehicle: water 100 % of control and 90 % of control | dose: 6.25 % in 0.5 ml injection vol, schedule: Q01DX009 (ip), vehicle: water 108 % of control and 114 % of control | dose: 8.0 % in 0.5 ml injection vol, schedule: Q01DX009 (ip), vehicle: water 99 % of control and 104 % of control and 108 % of control

Cc1ccc(C[N+](C)(C)CCCCCOc2c(Br)cc(Br)cc2Br)o1
inactive: dose: 3.13 mg/kg/injection, schedule: Q04DX003 (ip), vehicle: Klucel (hydroxypropylcellulose) (HPC) 101 % of control | dose: 6.25 mg/kg/injection, schedule: Q04DX003 (ip), vehicle: Klucel (hydroxypropylcellulose) (HPC) 94 % of control | dose: 12.5 mg/kg/injection, schedule: Q04DX003 (ip), vehicle: Klucel (hydroxypropylcellulose) (HPC) 98 % of control and 106 % of control

CSc1nc(NC2OCC(OC(C)=O)C(OC(C)=O)C2OC(C)=O)c(N=C(C)C(C)=O)c(=O)n1C (stereo not drawn)
inactive: [10] 100 % of control | [11] 87 % of control

CN(C)C(=O)Nc1nc2cc(Cl)c(Cl)cc2[nH]1
inactive: dose: 200.0 mg/kg/injection, schedule: Q04DX003 (oral), vehicle: saline with Tween-80 102 % of control | dose: 400.0 mg/kg/injection, schedule: Q04DX003 (oral), vehicle: saline with Tween-80 117 % of control | dose: 800.0 mg/kg/injection, schedule: Q04DX003 (oral), vehicle: saline with Tween-80 112 % of control | dose: 1600.0 mg/kg/injection, schedule: Q04DX003 (oral), vehicle: saline with Tween-80 121 % of control

O=C(CN1C(=O)c2cccc3c(Br)ccc(c23)C1=O)c1ccc(Cl)cc1
inactive: [6] 92 % of control | [17] 92 % of control | [18] 90 % of control

COC(=O)Nc1nc2cc(Cl)c(Cl)cc2[nH]1
inactive: dose: 25.0 mg/kg/injection, schedule: Q01DX009 (ip), vehicle: saline with Tween-80 103 % of control and 92 % of control | [7] 105 % of control and 123 % of control and 124 % of control | [8] 111 % of control | [9] 114 % of control | dose: 400.0 mg/kg/injection, schedule: Q01DX009 (ip), vehicle: saline with Tween-80 112 % of control | dose: 600.0 mg/kg/injection, schedule: Q01DX009 (ip), vehicle: saline with Tween-80 119 % of control

Cc1cnc(I)[nH]1
inactive: [1] 102 % of control | dose: 100.0 mg/kg/injection, schedule: Q04DX003 (ip), vehicle: saline 107 % of control | [2] 105 % of control | dose: 200.0 mg/kg/injection, schedule: Q04DX003 (ip), vehicle: saline 112 % of control | dose: 400.0 mg/kg/injection, schedule: Q04DX003 (ip), vehicle: saline 92 % of control

Cc1ccc(C(C#N)C(=O)CCCC(=O)Nc2ccc(C)c(C)c2)cc1 (stereo not drawn)
inactive: [10] 109 % of control | [11] 100 % of control | dose: 240.0 mg/kg/injection, schedule: Q01DX005 (ip), vehicle: saline with Tween-80 100 % of control

CCCCCCC1CC2CCCCN2O1 (stereo not drawn)
inactive: dose: 40.0 mg/kg/injection, schedule: Q01DX009 (ip), vehicle: Klucel (hydroxypropylcellulose) (HPC) 113 % of control | dose: 80.0 mg/kg/injection, schedule: Q01DX009 (ip), vehicle: Klucel (hydroxypropylcellulose) (HPC) 107 % of control | dose: 160.0 mg/kg/injection, schedule: Q01DX009 (ip), vehicle: Klucel (hydroxypropylcellulose) (HPC) 119 % of control

S=P1(CNc2ccccc2)CN(c2ccccc2)CN(c2ccccc2)C1
inactive: dose: 50.0 mg/kg/injection, schedule: Q01DX001 (ip), vehicle: saline with Tween-80 100 % of control | [12] 95 % of control | [13] 100 % of control

O=C(O)CC12CC3CC(CC(O)(C3)C1)C2
inactive: dose: 50.0 mg/kg/injection, schedule: Q01DX009 (ip), vehicle: Klucel (hydroxypropylcellulose) (HPC) 100 % of control | dose: 100.0 mg/kg/injection, schedule: Q01DX009 (ip), vehicle: Klucel (hydroxypropylcellulose) (HPC) 109 % of control | dose: 200.0 mg/kg/injection, schedule: Q01DX009 (ip), vehicle: Klucel (hydroxypropylcellulose) (HPC) 90 % of control

COC(=O)c1cc(=O)c2scc(C)[n+]2[nH]1
inactive: [6] 105 % of control | [17] 100 % of control | [18] 100 % of control
